Experimental findings from patent publication US20250333397A1 (REMIX THERAPEUTICS INC., priority 2021, published 2025) are described below.

Molecules are shown by their SMILES. Read-outs that look alike come from different tables or passages of the source.

Type in all cases: cell-based, human
Assay [1] concerns MYB mRNA. The experiment in a line: RT-qPCR splicing assay, MYB canonical (CJ) and alternative (AJ) junction mRNA. The note with it: Homo sapiens; for AC50: read-out: MYB AJ (AC50, increase in AJ mRNA). The procedure, abridged:
(§1)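 CJ and AJ junction levels were quantified by RT-qPCR on lysates, with housekeeper ΔCt normalized to DMSO (ΔΔCt) and expressed as RQ = 2^(-ΔΔCt). Before lysis, K562 or A673 cells had 24 h compound exposure at 37 °C. Dosing was 11 points, 3-fold, from 10 uM final, with DMSO at most 0.25%.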
(Quantitative PCR measures a nucleic acid by following its amplification.)

For assay [2], the system named is SMN2 mRNA. The assay can be described thus: RT-qPCR splicing assay panel, SMN2 canonical junction (CJ) mRNA. The note with it: Homo sapiens. In short, it runs like this:
as §1

The test system of assay [3] is HTT mRNA. The experiment in a line: RT-qPCR splicing assay, HTT canonical (CJ) and alternative (AJ) junction mRNA. The note with it: Homo sapiens; for AC50: read-out: HTT AJ (AC50, increase in AJ mRNA). In short, it runs like this:
as §1

The subject of assay [4] is Target C mRNA. The assay can be described thus: RT-qPCR splicing assay panel, Target C canonical junction (CJ) mRNA. The note with it: Homo sapiens. The procedure, abridged: as §1
[5] abbreviates: 24 h, Table 3A, A673 or K562 cells, 24 h treatment.
The mark [6] stands for this setting: 24 h, Table 3A, A673 or K562 cells, 24 h treatment, read-out: MYB CJ (IC50, decrease in CJ mRNA).
Setting [7] is: canonical junction (CJ) mRNA, RT-qPCR panel, Table 4A, read-out: MYB, decrease in CJ mRNA levels, IC50.
The mark [8] stands for this setting: canonical junction (CJ) mRNA, RT-qPCR panel, Table 4A, read-out: SMN2, decrease in CJ mRNA levels, IC50.
Setting [9] is: 24 h, Table 3A, A673 or K562 cells, 24 h treatment, read-out: HTT CJ (IC50, decrease in CJ mRNA).
Where [10] appears, read: canonical junction (CJ) mRNA, RT-qPCR panel, Table 4A, read-out: HTT, decrease in CJ mRNA levels, IC50.
[11] abbreviates: canonical junction (CJ) mRNA, RT-qPCR panel, Table 4A, read-out: Target C, decrease in CJ mRNA levels, IC50.
Setting [12] is: 24 h, Table 3B, A673 or K562 cells, 24 h treatment.
Where [13] appears, read: 24 h, Table 3B, A673 or K562 cells, 24 h treatment, read-out: MYB CJ (IC50, decrease in CJ mRNA).
Setting [14] is: Table 4B, gene panel, read-out: MYB (IC50, decrease in CJ mRNA levels).
Where [15] appears, read: Table 4B, gene panel, read-out: SMN2 (IC50, decrease in CJ mRNA levels).
Setting [16] is: 24 h, Table 3B, A673 or K562 cells, 24 h treatment, read-out: HTT CJ (IC50, decrease in CJ mRNA).
The mark [17] stands for this setting: Table 4B, gene panel, read-out: HTT (IC50, decrease in CJ mRNA levels).
Setting [18] is: Table 4B, gene panel, read-out: Target C (IC50, decrease in CJ mRNA levels).

As for `Cc1ccc(-c2ccc(-c3ccc(N4CCC(NC5CCC5)C4)nn3)c(O)c2)o1` (centres unmarked) [Compound 325, 2-{6-[3-(cyclobutylamino)pyrrolidin-1-yl]pyridazin-3-yl}-5-(5-methylfuran-2-yl)phenol], the AC50 in assay [1] (setting [5]) and in assay [3] (setting [5]) was 1000 to 10000 nM throughout. In addition, the IC50 in assay [1] (setting [6]), in assay [1] (setting [7]), in assay [2] (setting [8]), in assay [3] (setting [9]), in assay [3] (setting [10]) and in assay [4] (setting [11]) was 1000 to 10000 nM in each case.

Turning to `Cc1nc(C#N)c(-c2cc(O)c(-c3ccc(N4CC[C@H](NC5CCC5)C4)nn3)cc2F)s1` [Compound 429], the AC50 – broadly, the concentration giving half of the maximal activity seen – in assay [1] (setting [5]) lay in the range of 1000 to 10000 nM; in assay [3] (setting [5]), 100 to 1000 nM. In addition, the IC50 (usually the concentration needed to halve the response being measured) in assay [1] (setting [6]) was 1000 to 10000 nM; in assay [1] (setting [7]) it was 1000 to 10000 nM; in assay [2] (setting [8]), 100 to 1000 nM; in assay [3] (setting [9]), 100 to 1000 nM; in assay [3] (setting [10]), 100 to 1000 nM; in assay [4] (setting [11]), 100 to 1000 nM.

`Cc1ncc(-c2ccc(-c3ccc(N4CC[C@@H](NCC5CC5)C4)nn3)c(O)c2)s1` [Compound 379, 2-{6-[(3R)-3-[(cyclopropylmethyl)amino]pyrrolidin-1-yl]pyridazin-3-yl}-5-(2-methyl-1,3-thiazol-5-yl)phenol]: the AC50 in assay [1] (setting [5]) and in assay [3] (setting [5]) was under 100 nM in each case. Further, the IC50 in assay [1] (setting [6]), in assay [1] (setting [7]), in assay [2] (setting [8]), in assay [3] (setting [9]), in assay [3] (setting [10]) and in assay [4] (setting [11]) was under 100 nM in each case.

In the case of `Cn1ccc(-c2ccc(-c3ccc(N4CCC(NC5CCC5)C4)nn3)c(O)c2)nc1=O` (centres unmarked) [Compound 306], the concentration at half-maximal activity (AC50) in assay [1] (setting [5]) and in assay [3] (setting [5]) was 1000 to 10000 nM throughout. Also, the IC50 was 1000 to 10000 nM in assay [1] (setting [6]); 1000 to 10000 nM in assay [1] (setting [7]); 100 to 1000 nM in assay [2] (setting [8]); 1000 to 10000 nM in assay [3] (setting [9]); 1000 to 10000 nM in assay [3] (setting [10]); 1000 to 10000 nM in assay [4] (setting [11]).

For `COc1cc(-c2ccc(-c3ccc(N4CC[C@@H](NC5CCC5)C4)nn3)c(O)c2)ncn1` [Compound 364, 2-{6-[(3R)-3-(cyclobutylamino)pyrrolidin-1-yl]pyridazin-3-yl}-5-(6-methoxypyrimidin-4-yl)phenol], the AC50 in assay [1] (setting [5]) is 1000 to 10000 nM; in assay [3] (setting [5]), 100 to 1000 nM. Also, the IC50 was 100 to 1000 nM in assay [1] (setting [6]); 100 to 1000 nM in assay [1] (setting [7]); under 100 nM in assay [2] (setting [8]); 100 to 1000 nM in assay [3] (setting [9]); 100 to 1000 nM in assay [3] (setting [10]); 100 to 1000 nM in assay [4] (setting [11]).

`Oc1cc(-c2cnnc(C3CC3)c2)ccc1-c1ccc(N2CC[C@@H](NC3CCC3)C2)nn1` [Compound 279, 2-{6-[(3R)-3-(cyclobutylamino)pyrrolidin-1-yl]pyridazin-3-yl}-5-(6-cyclopropylpyridazin-4-yl)phenol]: the AC50 in assay [1] (setting [5]) and in assay [3] (setting [5]) was over 10000 nM each time. Further, the concentration for half-maximal inhibition (IC50) in assay [1] (setting [6]) is over 10000 nM; in assay [1] (setting [7]), over 10000 nM; in assay [2] (setting [8]), 100 to 1000 nM; in assay [3] (setting [9]), 1000 to 10000 nM; in assay [3] (setting [10]) it was 1000 to 10000 nM; in assay [4] (setting [11]) it was over 10000 nM.

As to `Cc1nc2cc(O)c(-c3cnc(N4CC[C@H](N(C)C(C)(C)C)C4)nn3)cc2o1` [Compound 857], the half-maximal activity concentration (AC50) in assay [1] (setting [12]) and in assay [3] (setting [12]) was 100 to 1000 nM throughout. Also, the IC50 was 100 to 1000 nM in assay [1] (setting [13]); 100 to 1000 nM in assay [1] (setting [14]); under 100 nM in assay [2] (setting [15]); under 100 nM in assay [3] (setting [16]); under 100 nM in assay [3] (setting [17]); 100 to 1000 nM in assay [4] (setting [18]).

`Oc1cc(-c2cc(OC(F)(F)F)ncn2)ccc1-c1ccc(N2CCC(NCC3CC3)C2)nn1` (centres unmarked) [Compound 455]: the IC50 in assay [1] (setting [7]), in assay [2] (setting [8]), in assay [3] (setting [10]) and in assay [4] (setting [11]) was over 10000 nM each time.

Regarding `Oc1cc(-c2cn[nH]c2)c(F)cc1-c1ccc(N2CC[C@@H](NC3CCC3)C2)nn1` [Compound 115, 2-{6-[(3R)-3-(cyclobutylamino)pyrrolidin-1-yl]pyridazin-3-yl}-4-fluoro-5-(1H-pyrazol-4-yl)phenol], the concentration at half-maximal activity (AC50) in assay [1] (setting [5]) and in assay [3] (setting [5]) was under 100 nM each time. The 50% inhibitory concentration (IC50) in assay [1] (setting [6]), in assay [1] (setting [7]), in assay [2] (setting [8]), in assay [3] (setting [9]), in assay [3] (setting [10]) and in assay [4] (setting [11]) was under 100 nM in each case.

With `Oc1cc(-c2cn[nH]c2)ccc1-c1ccc(N2CC[C@H](NC3CCC3)C2)nn1` [Compound 116, 2-{6-[(3S)-3-(cyclobutylamino)pyrrolidin-1-yl]pyridazin-3-yl}-5-(1H-pyrazol-4-yl)phenol], the concentration at half-maximal activity (AC50) was 100 to 1000 nM in assay [1] (setting [5]) and under 100 nM in assay [3] (setting [5]). Besides, the IC50 in assay [1] (setting [6]) is 100 to 1000 nM; in assay [1] (setting [7]) it was 100 to 1000 nM; in assay [2] (setting [8]), under 100 nM; in assay [3] (setting [9]) it was under 100 nM; in assay [3] (setting [10]), under 100 nM; in assay [4] (setting [11]) it was under 100 nM.

Regarding `CC1(NC2CCN(c3ccc(-c4cc(F)c(-c5cn[nH]c5)cc4O)nn3)C2)CC1` (centres unmarked) [Compound 111, 4-fluoro-2-(6-{3-[(1-methylcyclopropyl)amino]pyrrolidin-1-yl}pyridazin-3-yl)-5-(1H-pyrazol-4-yl)phenol], the AC50 in assay [1] (setting [5]) and in assay [3] (setting [5]) was under 100 nM in each case. The IC50 in assay [1] (setting [6]), in assay [1] (setting [7]), in assay [2] (setting [8]), in assay [3] (setting [9]), in assay [3] (setting [10]) and in assay [4] (setting [11]) was under 100 nM throughout.

On to `Cc1nc2cc(O)c(-c3cnc(N4C[C@@H](C)N[C@@H](C5CC5)C4)nn3)cc2o1` [Compound 870], for which the AC50 in assay [1] (setting [12]) and in assay [3] (setting [12]) was 1000 to 10000 nM each time. For the same molecule, the concentration for half-maximal inhibition (IC50) in assay [1] (setting [13]), in assay [1] (setting [14]), in assay [2] (setting [15]), in assay [3] (setting [16]), in assay [3] (setting [17]) and in assay [4] (setting [18]) was 1000 to 10000 nM each time.

As for `CC1(C)CC(Oc2nnc(-c3ccc(-c4cn[nH]c4)cc3O)cc2C#N)CC(C)(C)N1` [Compound 423], the concentration at half-maximal activity (AC50) in assay [1] (setting [5]) was over 10000 nM; in assay [3] (setting [5]), 1000 to 10000 nM. The IC50 in assay [1] (setting [6]) is over 10000 nM; in assay [1] (setting [7]) it was over 10000 nM; in assay [2] (setting [8]), 100 to 1000 nM; in assay [3] (setting [9]) it was 1000 to 10000 nM; in assay [3] (setting [10]), 1000 to 10000 nM; in assay [4] (setting [11]) it was over 10000 nM.

As for `COc1cc(-c2ccc(-c3ccc(N4CC[C@@H](N(CCF)C5CCC5)C4)nn3)c(O)c2)cnn1` [Compound 313, 2-{6-[(3R)-3-[cyclobutyl(2-fluoroethyl)amino]pyrrolidin-1-yl]pyridazin-3-yl}-5-(6-methoxypyridazin-4-yl)phenol], the AC50 in assay [1] (setting [5]) and in assay [3] (setting [5]) was 1000 to 10000 nM in each case. Also, the 50% inhibitory concentration (IC50) in assay [1] (setting [6]) is over 10000 nM; in assay [1] (setting [7]) it was over 10000 nM; in assay [2] (setting [8]), 100 to 1000 nM; in assay [3] (setting [9]), 100 to 1000 nM; in assay [3] (setting [10]), 100 to 1000 nM; in assay [4] (setting [11]), over 10000 nM.

With `Cc1ncc(-c2cc(O)c(-c3ccc(N4CC[C@@H](NC(C)(C)C)C4)nn3)cc2F)s1` [Compound 338, 2-{6-[(3R)-3-(tert-butylamino)pyrrolidin-1-yl]pyridazin-3-yl}-4-fluoro-5-(2-methyl-1,3-thiazol-5-yl) phenol], the AC50 in assay [1] (setting [5]) and in assay [3] (setting [5]) was under 100 nM each time. Also, the 50% inhibitory concentration (IC50) in assay [1] (setting [6]), in assay [1] (setting [7]), in assay [2] (setting [8]), in assay [3] (setting [9]), in assay [3] (setting [10]) and in assay [4] (setting [11]) was under 100 nM throughout.
